From patent US11648247B1, “Compositions and methods for the treatment of presbyopia” (Lenz Therapeutics, Inc., priority 2021, dated 2023)

Key:
presbyopic subjects [1] = experiment: Near and distance visual acuity after topical instillation (lines of improvement, onset, duration, efficacy index); type: in vivo, human
Experimental: As aceclidine is an […], the clinical effectiveness may vary with different ratios. For the present studies a nearly exact 50:50 ratio of stereoisomers was measured as best determined by polarimetry.
In brief, the score is calculated by multiplying the lines of improvement in near visual acuity by the number of hours the improvement lasts. For example, a score of: 5 is equal to +1 lines of improvement in near visual acuity for 5 hours; 10 is equal to +1.5 lines of improvement for 6.7 hours; 15 is equal to 2 lines of improvement for 7.5 hours; 20 is equal to 2.5 lines of improvement for 8 hours; 25 is equal to 3+ lines of improvement for 8.3 hours and 35 is equal to 3.75+ lines of improvement for 9 hours.
The subject instilled 2 drops of the above formulation in each eye as 1 single drop each eye and a second drop after 5 minutes.
2 subjects instilled 2 drops each of the above formulation in each eye about 5 minutes apart.
A 1.75% aceclidine in saline solution was formulated. One drop was instilled into each eye of a presbyopic subject. The visual acuity of the subject was tested both before and after instillation using a LogMAR chart.
Formulation AB#1 was instilled via 2-drops with a 5-minute interval in the eyes of a person. […] All near and distance vision with over-refraction was red-green adjusted to emmetropia. Near vision at 1 hour post instillation was measured. Further, duration to 20.40 vision was measured.

eye [2] = experiment: Comfort and tolerability after instillation (stinging, redness, ciliary spasm/brow ache, blur, dimming); type: in vivo, human; settings: for night vision / dimming: pH 7.5
Experimental: Ciliary spasms scores correspond to the following: 0=no discomfort; 0.5=slight sting; 1=noticeable squeeze/discomfort; 2=pain for less than 30 minutes; 3=pain for 1 hour or more; and 4=severe to intolerable pain.

[3] = Stability of aceclidine in storage (HPLC); type: physicochemical; settings: for Stability of Aceclidine: same composition
Experimental: 20 samples of the above composition were divided evenly and stored at 25° C. and 4° C. Prior to storage, initial concentrations of aceclidine were measured using […] (“HPLC”). The amount of aceclidine in each solution was calculated by the area under the principal peak compared to a reference solution of aceclidine. Samples were then subject to storage for 3 months. Aceclidine measurements were taken at 1, 2 and 3 months.

eye [4] = settings: brimonidine 0.20% w/v (Alphagan®) twice daily; cited from earlier work
pupil = settings: cited from earlier work
presbyopic subjects [5] = settings: pilocarpine with oxymetazoline, US 2014/0113946; cited from earlier work
[6] = post instillation, 1.75% aceclidine in saline solution

CC(=O)OC1CN2CCC1CC2 (racemic) [aceclidine]
near vision (presbyopic subjects [1]; FIG. 2, aceclidine in carrier: 5.5% HPβCD, 0.75% CMC, 0.25% NaCl, 0.01% BAK): < 20.20 | LogMAR score at 1-meter distance (presbyopic subjects [1]; after instillation, 1.75% aceclidine in saline solution): −0.12 LogMAR | LogMAR score at 45 centimeters distance (presbyopic subjects [1]; after instillation, 1.75% aceclidine in saline solution, one drop each eye, 0.50 prior): 0.22 LogMAR | Noticeable degradation in reading distance acuity began (presbyopic subjects [1]; [6]): 4 h | improved reading distance acuity maintained (presbyopic subjects [1]; [6]): 3.5 h | Stinging, lasting (eye [2]; 1.35% w/v aceclidine, Example 2): 2 to 5 s | Stability of Aceclidine ([3]; 4° C., 1 month): 93% | Stability of Aceclidine ([3]; 4° C., 2 months): 92% | Stability of Aceclidine ([3]; 4° C., 3 months): 88% | Stability of Aceclidine ([3]; 4° C., Initial): 100% | Stability of Aceclidine ([3]; 25° C., 1 month): 92% | Stability of Aceclidine ([3]; 25° C., 2 months): 75% | Stability of Aceclidine ([3]; 25° C., 3 months): 50% | Stability of Aceclidine (amount vs reference) ([3]; 25° C., Initial, 1.50% aceclidine, 0.042% tropicamide, 5.5% polyoxyl 40 stearate, 2.5% mannitol, 3 mM citrate, pH 4.75): 100%

Brc1c(NC2=NCCN2)ccc2nccnc12 [brimonidine]
rebound redness (eye [4]): 25 % of patients | tachyphylaxis of pupil modulation (pupil; brimonidine 0.20% w/v topically for night vision, within four weeks of use): ~100 % of treated subjects | duration of miotic effect (pupil; brimonidine, typically): about four hours | transiently induced miosis (pupil; brimonidine): 1.0-2.0 mm

CC[C@@H]1C(=O)OC[C@@H]1Cc1cncn1C [pilocarpine]
time until full effect became diminished (presbyopic subjects [5]): about four hours

tropicamide
night vision / dimming (eye [2]; 0.035% w/v tropicamide in 1.55% w/v aceclidine composition): slight dimming | night vision / dimming (eye [2]; 0.042% w/v tropicamide in 1.55% w/v aceclidine composition): normal indoor night vision | effect on brow ache (eye [2]; tropicamide 0.01% w/v with aceclidine): slightly reduce brow ache | effect on brow ache (eye [2]; tropicamide 0.014% w/v with aceclidine): reduce brow ache | effect on brow ache (eye [2]; tropicamide 0.021% w/v with aceclidine): further reduce brow ache | effect on brow ache (eye [2]; tropicamide 0.030% w/v with aceclidine): further reduce brow ache | effect on brow ache (eye [2]; tropicamide from 0.028% to 0.060% w/v with aceclidine): completely eliminate brow ache | effect on brow ache (eye [2]; tropicamide from 0.04% to about 0.07% w/v with aceclidine): completely eliminate brow ache
